Results on six compounds are retold here after US8410302B2, “Methoxyimino compounds and fungicide composition comprising same” (Kyung Nong Corporation, priority 2007, dated 2013).

Structures are written as SMILES. Like-named read-outs stand apart in the source and are kept apart here.

Assay [1] concerns Pyricularia oryzae Carvara KA301. In words: whole plant or invertebrate. Format: in vivo. The following applies: Pyricularia oryzae, read-out: RCB control value (C.V.).
For assay [2], the system named is Botrytis cinerae. In words: Fungicidal activity against cucumber gray mold rot (CGM) disease, control value. Format: in vivo. The following applies: Botrytis, 100 ppm, read-out: CGM control value (C.V.).
The test system of assay [3] is Phytophthora infestans. In words: whole plant or invertebrate. Format: in vivo. The following applies: Phytophthora infestans, in Solanum lycopersicum, read-out: TLB control value (C.V.).
Assay [4] has as its system Puccinia recondita. In words: Fungicidal activity against wheat leaf rust (WLR) disease, control value. It counts as in vivo. The following applies: read-out: WLR control value (C.V.).
In assay [5] the test system is Erysiphae graminis. In words: Fungicidal activity against barley powdery mildew (BPM) disease, control value. Format: in vivo. The following applies: 168 h, read-out: BPM control value (C.V.).
The test system of assay [6] is Rhizoctonia solani AG-1. The assay is described as follows: Fungicidal activity against rice sheath blight (RSB) disease, control value. The following applies: Rhizoctonia solani, AG1, in Oryza sativa, read-out: RSB control value (C.V.).
Setting [7] is: Hordeum vulgare, barley powdery mildew.

For `CNC(=O)/C(=N/OC)c1ccccc1COc1c(C)cccc1C=C(Cl)Cl` [Example 50, (E)-2-(2-((2-(2,2-dichlorovinyl)-6-methylphenoxy)methyl)phenyl)-2-methoxyimino-N-methylacetamide], the pest or weed control at 2 ppm in assay [1] amounted to 85%; in assay [3] it was 90%; in assay [4] (wheat leaf rust) it was 100%; in assay [5] (setting [7]) it was 100%; in assay [6], 95%. Moreover, the pest or weed control at 10 ppm came to 98% in assay [1]; 99% in assay [3]; 100% in assay [4] (wheat leaf rust); 100% in assay [5] (setting [7]); 98% in assay [6]. Besides, the pest or weed control at 50 ppm in assay [1], in assay [3], in assay [4] (wheat leaf rust), in assay [5] (setting [7]) and in assay [6] was 100% in each case. In addition, the pest or weed control at 100 ppm in assay [1] came out at 100%; in assay [2] (cucumber gray mold rot), 20%; in assay [3] it was 100%; in assay [4] (wheat leaf rust) it was 100%; in assay [5] (setting [7]), 100%; in assay [6], 100%.

Regarding `CO/N=C(/C(=O)OC)c1ccccc1COc1c(C)cccc1C=C(Br)Br` [Example 73, methyl-(E)-2-(2-((2-(2,2-dibromovinyl)-6-methylphenoxy)methyl)phenyl)-2-methoxyiminoacetate], the pest or weed control at 2 ppm in assay [1] came to 70%; in assay [4] (Puccinia recondita), 100%; in assay [5], 15%. Further, the pest or weed control at 10 ppm turned out to be 90% in assay [1], 10% in assay [3], 100% in assay [4] (Puccinia recondita) and 60% in assay [5]. The pest or weed control at 50 ppm in assay [1] is 100%; in assay [3], 90%; in assay [4] (Puccinia recondita), 100%; in assay [5] it was 93%. Also, the pest or weed control at 100 ppm in assay [1] amounted to 100%; in assay [2], 20%; in assay [3], 100%; in assay [4] (Puccinia recondita), 100%; in assay [5] it was 95%; in assay [6], 10%.

For the compound `CO/N=C(/C(=O)OC)c1ccccc1COc1ccc(C=C(Cl)Cl)cc1Br` [Example 53, methyl-(E)-2-(2-((2-bromo-4-(2,2-dichlorovinyl)phenoxy)methyl)phenyl)-2-methoxyiminoacetate], the pest or weed control at 2 ppm in assay [1] came out at 70%; in assay [3], 90%; in assay [4] (Puccinia recondita), 100%; in assay [5] it was 100%; in assay [6] it was 85%. Moreover, the pest or weed control at 10 ppm was determined as 97% in assay [1]; 99% in assay [3]; 100% in assay [4] (wheat leaf rust); 100% in assay [5] (setting [7]); 98% in assay [6]. Moreover, the pest or weed control at 50 ppm in assay [1], in assay [3], in assay [4] (wheat leaf rust), in assay [5] (setting [7]) and in assay [6] was 100% in each case. For the same compound, the pest or weed control at 100 ppm was found to be 100% in assay [1]; 50% in assay [2] (cucumber gray mold rot); 100% in assay [3]; 100% in assay [4] (wheat leaf rust); 100% in assay [5] (setting [7]); 100% in assay [6].

For the compound `CNC(=O)/C(=N/OC)c1ccccc1COc1ccc(F)cc1C=C(Br)Br` [Example 80, (E)-2-(2-((2-(2,2-dibromovinyl)-4-fluorophenoxy)methyl)phenyl)-2-methoxyimino-N-methylacetamide], the pest or weed control at 2 ppm in assay [1] came out at 35%; in assay [3], 70%; in assay [4] (Puccinia recondita), 95%; in assay [5], 90%; in assay [6], 65%. The pest or weed control at 10 ppm in assay [1] was 90%; in assay [3], 90%; in assay [4] (Puccinia recondita) it was 100%; in assay [5], 100%; in assay [6], 98%. In addition, the pest or weed control at 50 ppm in assay [1] came to 100%; in assay [3], 98%; in assay [4] (Puccinia recondita), 100%; in assay [5] it was 100%; in assay [6] it was 100%. Besides, the pest or weed control at 100 ppm in assay [1] amounted to 100%; in assay [2], 55%; in assay [3], 100%; in assay [4] (Puccinia recondita), 100%; in assay [5], 100%; in assay [6], 100%.

Take `CNC(=O)/C(=N/OC)c1ccccc1COc1ccc(C=C(Cl)Cl)cc1` [Example 4, (E)-2-(2-((4-(2,2-dichlorovinyl)phenoxy)methyl)phenyl)-2-methoxyimino-N-methylacetamide]: the pest or weed control at 2 ppm in assay [1] was 100%; in assay [3], 100%; in assay [4] (wheat leaf rust) it was 100%; in assay [5] (setting [7]) it was 100%; in assay [6], 90%. Further, the pest or weed control at 10 ppm in assay [1] came to 100%; in assay [3] it was 100%; in assay [4] (wheat leaf rust), 100%; in assay [5] (setting [7]), 100%; in assay [6] it was 98%. In addition, the pest or weed control at 50 ppm in assay [1], in assay [3], in assay [4] (wheat leaf rust), in assay [5] (setting [7]) and in assay [6] was 100% throughout. In addition, the pest or weed control at 100 ppm was 100% in assay [1]; 75% in assay [2] (cucumber gray mold rot); 100% in assay [3]; 100% in assay [4] (wheat leaf rust); 100% in assay [5] (setting [7]); 100% in assay [6].

`CO/N=C(/C(=O)OC)c1ccccc1COc1ccc(C=C(Cl)Cl)cc1` [Example 3, methyl-(E)-2-(2-((4-(2,2-dichlorovinyl)phenoxy)methyl)phenyl)-2-methoxyiminoacetate]: the pest or weed control at 2 ppm in assay [1] stood at 30%; in assay [3], 0%; in assay [4] (wheat leaf rust), 40%; in assay [5] (setting [7]), 20%. In addition, the pest or weed control at 10 ppm in assay [1] was 90%; in assay [3], 35%; in assay [4] (wheat leaf rust) it was 90%; in assay [5] (setting [7]), 50%. Further, the pest or weed control at 50 ppm was 100% in assay [1], 95% in assay [3], 100% in assay [4] (wheat leaf rust) and 95% in assay [5] (setting [7]). For the same compound, the pest or weed control at 100 ppm in assay [1] amounted to 100%; in assay [2] (cucumber gray mold rot) it was 50%; in assay [3], 98%; in assay [4] (wheat leaf rust), 100%; in assay [5] (setting [7]), 95%; in assay [6], 60%.
